Measured values: PMC11894060, “Accelerating discovery of bioactive ligands with pharmacophore-informed generative models” (Nature Communications, 2025)
Like-named read-outs stand apart in the source and are kept apart here.

How the values were obtained:
[1] = biological target: T1, PLK3 (Homo sapiens, UniProt Q9H4B4); experiment: Activity against PLK3 (peer review response); assay type: biochemical; conditions: source not stated
[2] = biological target: T2, PLK2 (Homo sapiens, UniProt Q9NYY3); experiment: Activity against PLK2 (peer review response); assay type: biochemical
T2 sequence (Q9NYY3 whole entry): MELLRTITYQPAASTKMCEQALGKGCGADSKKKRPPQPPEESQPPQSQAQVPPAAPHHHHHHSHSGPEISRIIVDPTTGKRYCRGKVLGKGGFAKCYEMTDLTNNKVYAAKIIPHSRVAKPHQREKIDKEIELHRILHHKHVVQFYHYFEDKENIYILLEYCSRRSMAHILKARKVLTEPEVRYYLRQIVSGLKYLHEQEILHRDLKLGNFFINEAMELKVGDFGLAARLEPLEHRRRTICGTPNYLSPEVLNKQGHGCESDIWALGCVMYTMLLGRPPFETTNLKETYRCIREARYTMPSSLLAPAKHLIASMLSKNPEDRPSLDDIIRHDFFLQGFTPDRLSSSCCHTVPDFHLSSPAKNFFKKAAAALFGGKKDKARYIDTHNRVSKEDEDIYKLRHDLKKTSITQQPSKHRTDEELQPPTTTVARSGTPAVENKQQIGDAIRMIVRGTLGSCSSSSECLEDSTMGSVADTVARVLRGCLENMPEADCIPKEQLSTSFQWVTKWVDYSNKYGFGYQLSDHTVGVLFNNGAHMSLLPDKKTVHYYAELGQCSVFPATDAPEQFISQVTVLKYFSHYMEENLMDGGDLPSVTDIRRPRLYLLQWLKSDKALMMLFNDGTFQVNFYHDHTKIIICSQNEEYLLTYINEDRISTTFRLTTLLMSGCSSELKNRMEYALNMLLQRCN

[3] = biological target: T3, PLK1 (Homo sapiens, UniProt P53350); experiment: In-house enzymatic activity (peer review response); assay type: biochemical; conditions: Onvansertib vs. Volasertib
T3 sequence (P53350 whole entry): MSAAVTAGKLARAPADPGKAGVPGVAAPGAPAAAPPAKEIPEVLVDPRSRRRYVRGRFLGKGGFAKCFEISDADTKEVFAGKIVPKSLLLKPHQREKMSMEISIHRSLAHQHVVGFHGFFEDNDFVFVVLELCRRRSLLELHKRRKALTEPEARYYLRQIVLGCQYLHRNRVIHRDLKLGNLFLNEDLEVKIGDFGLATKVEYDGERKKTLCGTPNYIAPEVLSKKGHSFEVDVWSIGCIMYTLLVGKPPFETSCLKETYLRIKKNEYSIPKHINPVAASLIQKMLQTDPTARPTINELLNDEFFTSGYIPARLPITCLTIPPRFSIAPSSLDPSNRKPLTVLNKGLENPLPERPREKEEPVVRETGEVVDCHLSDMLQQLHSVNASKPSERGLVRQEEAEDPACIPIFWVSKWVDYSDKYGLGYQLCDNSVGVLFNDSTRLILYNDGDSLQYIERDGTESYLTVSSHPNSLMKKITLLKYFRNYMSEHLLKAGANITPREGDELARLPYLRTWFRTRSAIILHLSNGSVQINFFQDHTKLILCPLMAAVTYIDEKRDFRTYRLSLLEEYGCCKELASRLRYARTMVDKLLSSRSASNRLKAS

[4] = biological target: T3, PLK1; experiment: PLK1 kinase ADP-Glo assay (in vitro kinase activity); assay type: biochemical; design: 2 μl of PLK1 enzyme (15 ng/well); conditions: for selectivity for PLK1 compared to other Plks (in words): PLK1 vs PLK2/PLK3
Description: (§1) In vitro kinase activity assays were conducted through ADP-Glo assay services provided by Conradbio (Conradbio, China). The protocol for the PLK1 assay is described as follows (protocols for other kinases are very similar). Enzyme, substrate, ATP, and compounds were diluted in a Kinase Buffer composed of 40 mM Tris (pH 7.5), 20 mM MgCl2, 0.1 mg/ml BSA, and 50 μM DTT. In a 384-well low-volume plate, 1 μl of the compound or 5% dimethyl sulfoxide (DMSO), 2 μl of PLK1 enzyme (15 ng/well), and 2 μl of substrate/ATP mix (final concentration: 20 μM ATP, 0.2 μg/μl Casein) were added to each well. The plate was then incubated at 25 °C for 60 min to allow for kinase activity. Following the enzymatic reaction, 5 μl of ADP-Glo^TM Reagent was added to each well, and the plate was incubated at 25 °C for an additional 40 min. Subsequently, 10 μl of Kinase Detection Reagent was added, and the plate was incubated for a final 30 min at 25 °C. Luminescence was recorded with an integration time of 0.5 s.
(§2) IC50 values were calculated using Prism 8 by fitting the following equation:4 Y=Bottom+(Top−Bottom)/(1+10^(logIC50−X)×HillSlope), where X is a log of concentration, Y is a response, and top and bottom are the responses of controls. Each assay was repeated at least three times, and we computed the mean and standard deviation for the values.

[5] = biological target: T3, PLK1; design: method as in ExCAPE-DB [85]; conditions: known PLK1 ligands carrying the core substructures; ref ExCAPE-DB [85]; cited from earlier work
[6] = biological target: T2, PLK2; experiment: PLK2 ADP-Glo kinase assay (selectivity); assay type: biochemical; conditions: read-out: IC50 against PLK2
Description: as §1, §2

[7] = Preliminary in vivo pharmacokinetic experiments in mice
[8] = biological target: T1, PLK3; experiment: PLK3 ADP-Glo kinase assay (selectivity); assay type: biochemical; conditions: read-out: IC50 against PLK3
Description: as §1, §2

[9] = tested on: HCT116 cell line; experiment: CellTiter-Glo cell viability assay on HCT116; assay type: cell-based, human
Description: Cell viability assays were conducted through CellTiter-Glo assay services provided by Conradbio (Conradbio, China). The protocol is briefly described as follows. Firstly, when the cell confluence reaches 80%, cells are collected and counted. Subsequently, a cell suspension is diluted, and 80 μl of the suspension is seeded into each well of a 96-well U-bottom plate. The plate is then placed in a 37 °C, 5% CO2 incubator for optimal cell growth. After 24 h of incubation, a 20 μl aliquot of a diluted compound solution is added to specific wells on the plate, 0.5% dimethyl sulfoxide (DMSO) is used as a negative control. Following the compound addition, the plate is returned to the incubator for an additional day. Upon completion of the incubation period, the CellTiter-Glo assay (Promega) is performed according to the manufacturer’s manual. This assay is designed to measure cell viability based on luminescence, providing insights into the impact of the compounds on cellular health. Finally, data calculation is carried out to analyze the results of the CTG assay using Prism 8.

[10] = biological target: FAK kinase (Homo sapiens, UniProt Q05397); experiment: FAK ADP-Glo kinase assay (selectivity); assay type: biochemical; conditions: for IC50: ADP-Glo assay, read-out: IC50 against FAK; for selectivity for PLK1 over FAK: FAK IC50 versus PLK1 IC50
FAK kinase, sequence (Q05397 whole entry): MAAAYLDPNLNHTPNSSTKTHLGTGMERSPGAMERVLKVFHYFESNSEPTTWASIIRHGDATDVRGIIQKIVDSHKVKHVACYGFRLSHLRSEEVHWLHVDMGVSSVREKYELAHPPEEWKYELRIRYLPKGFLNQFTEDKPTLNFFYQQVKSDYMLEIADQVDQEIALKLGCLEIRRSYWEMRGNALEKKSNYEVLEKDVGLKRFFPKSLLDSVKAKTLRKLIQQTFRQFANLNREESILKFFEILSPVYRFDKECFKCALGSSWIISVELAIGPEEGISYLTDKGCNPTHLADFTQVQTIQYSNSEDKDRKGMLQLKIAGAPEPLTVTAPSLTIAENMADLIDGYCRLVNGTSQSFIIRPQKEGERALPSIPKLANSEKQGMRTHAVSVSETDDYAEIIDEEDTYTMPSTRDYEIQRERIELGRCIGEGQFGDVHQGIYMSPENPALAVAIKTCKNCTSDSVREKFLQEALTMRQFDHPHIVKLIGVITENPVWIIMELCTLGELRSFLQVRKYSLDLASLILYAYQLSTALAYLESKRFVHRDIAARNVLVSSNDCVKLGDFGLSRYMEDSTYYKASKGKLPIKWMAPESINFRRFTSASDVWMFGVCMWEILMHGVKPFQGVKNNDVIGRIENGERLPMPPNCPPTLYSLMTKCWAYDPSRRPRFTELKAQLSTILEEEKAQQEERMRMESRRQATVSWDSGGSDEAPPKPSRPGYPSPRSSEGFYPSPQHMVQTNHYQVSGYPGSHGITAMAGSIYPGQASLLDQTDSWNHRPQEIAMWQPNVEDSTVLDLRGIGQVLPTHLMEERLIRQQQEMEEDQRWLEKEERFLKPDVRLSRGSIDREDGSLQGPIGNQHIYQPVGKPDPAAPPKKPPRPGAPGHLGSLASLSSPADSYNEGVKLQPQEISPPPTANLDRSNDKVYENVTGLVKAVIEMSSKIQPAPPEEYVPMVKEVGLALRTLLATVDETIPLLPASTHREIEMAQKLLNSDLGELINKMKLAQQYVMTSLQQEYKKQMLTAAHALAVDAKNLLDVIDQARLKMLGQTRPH
Description: as §1, §2

[11] = ADP-Glo assay, mean ± standard deviation, n = 3 replicates, read-out: IC50 against PLK1
[12] = ADP-Glo assay, read-out: IC50 against PLK1 (bound stated in text)
[13] = IC50 with 90% confidence interval, read-out: 90% CI of IC50 against PLK1
[14] = IC50 with 95% confidence interval, read-out: 95% CI of IC50 against PLK1
[15] = IC50 with 99% confidence interval, read-out: 99% CI of IC50 against PLK1

T1 sequence (Q9H4B4 whole entry): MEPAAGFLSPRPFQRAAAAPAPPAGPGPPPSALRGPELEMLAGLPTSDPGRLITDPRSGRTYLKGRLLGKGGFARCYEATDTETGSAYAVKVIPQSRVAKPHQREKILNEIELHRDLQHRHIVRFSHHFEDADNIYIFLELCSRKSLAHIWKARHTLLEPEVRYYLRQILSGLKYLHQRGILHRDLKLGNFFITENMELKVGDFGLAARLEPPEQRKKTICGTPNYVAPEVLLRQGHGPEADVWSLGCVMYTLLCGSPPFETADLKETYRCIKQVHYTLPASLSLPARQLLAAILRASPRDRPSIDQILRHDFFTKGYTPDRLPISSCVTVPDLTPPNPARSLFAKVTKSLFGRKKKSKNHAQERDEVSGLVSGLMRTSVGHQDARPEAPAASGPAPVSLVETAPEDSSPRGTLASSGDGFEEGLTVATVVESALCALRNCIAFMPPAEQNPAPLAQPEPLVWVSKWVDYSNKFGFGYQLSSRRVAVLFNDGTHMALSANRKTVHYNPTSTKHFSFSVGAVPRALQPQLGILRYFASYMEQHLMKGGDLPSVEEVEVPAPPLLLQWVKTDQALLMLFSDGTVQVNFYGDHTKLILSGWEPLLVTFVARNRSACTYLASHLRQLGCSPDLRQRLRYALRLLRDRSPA

| SMILES | IC50 [4, 11] [nM] | IC50 [4, 12] [nM] | IC50 [4, 13] [nM] | IC50 [4, 14] [nM] | IC50 [4, 15] [nM] | pXC50 [5] | further results |
| --- | --- | --- | --- | --- | --- | --- | --- |
| CC[C@@H]1C(=O)N(C)c2cnc(Nc3ccc(C(=O)N[C@H]4CC[C@H](N5CCN(CC6CC6)CC5)CC4)cc3OC)nc2N1C(C)C [Volasertib] | – | – | – | – | – | – | activity against PLK3 (in words) [1]: low nanomolar; selectivity compared to Onvansertib (in words) ([2]; PLK1 vs PLK2 and PLK3): much worse selectivity; activity against PLK2 (in words) ([2]; source not stated): low nanomolar; enzymatic activity, in-house experiments [3]: 0.30 nM |
| Cc1cc(Oc2ccc(C#N)cc2)nc(NCc2ccccc2)n1 [PubChem CID 1927680] | – | – | – | – | – | 5.6 | – |
| CCS(=O)(=O)c1ccc2oc(Nc3ccc(C(C)C)cc3)nc2c1 [PubChem CID 2462953] | – | – | – | – | – | 5.6 | – |
| COc1cc2c(cc1Nc1nc(Nc3ccsc3C(N)=O)c3cc[nH]c3n1)N(C(=O)CN(C)C)CCC2 [GSK-2110236A] | – | – | – | – | – | 7.6 | – |

Now from value to compound, other results behind:

| IC50 [4, 11] [nM] | IC50 [4, 12] [nM] | IC50 [4, 13] [nM] | IC50 [4, 14] [nM] | IC50 [4, 15] [nM] | SMILES | pXC50 [5] | further results |
| --- | --- | --- | --- | --- | --- | --- | --- |
| 927 ± 129 | < 1000 | 928 ± 122 | 928 ± 146 | 928 ± 192 | COc1ccc(N2CCN(C)CC2)cc1Nc1ncc(C)c(Oc2ccccc2-n2ccnn2)n1 [IIP0945] | – | – |
| > 10000 | – | – | – | – | COc1ccc(N2CCN(C)CC2)cc1Nc1ncc2ccn(-c3ccccc3-c3nc(C)no3)c2n1 [IIP0944] | – | – |
| 5.1 | < 1000 | 5.06 ± 1.64 | 5.06 ± 1.96 | 5.06 ± 2.57 | COc1ccc(N2CCN(C)CC2)cc1Nc1ncc(C)c(Oc2cccc3cc(C(N)=O)sc23)n1 [IIP0943] | – | IC50 [6]: > 1000 nM; half-life compared to Onvansertib (in words) [7]: prolonged half-life; oral bioavailability compared to Onvansertib ([7]; ratio to Onvansertib): over two-fold; selectivity for PLK1 compared to other Plks (in words) [4]: high and excellent; IC50 [8]: > 1000 nM; inhibitory activity in HCT116 cell proliferation (in words) ([9]; HCT116 cell line): submicromolar; IC50 ([9]; Homo sapiens, HCT-116, CellTiter-Glo, mean ± standard deviation, n = 3 replicates, read-out: IC50 of cell proliferation inhibition, HCT116): 220 ± 3 nM; IC50 [10]: 264 nM; selectivity for PLK1 over FAK [10]: over 50 fold |
| 37.6 | < 1000 | 37.6 ± 3.55 | 37.6 ± 4.23 | 37.6 ± 5.56 | COc1ccc(N2CCN(C)CC2)cc1Nc1ncc(C(F)(F)F)c(Oc2cccc3[nH]c(C(N)=O)cc23)n1 [IIP0942] | – | IC50 [6]: > 1000 nM; selectivity for PLK1 compared to other Plks (in words) [4]: excellent; IC50 [8]: > 1000 nM; IC50 [10]: 87.4 nM; selectivity for PLK1 over FAK [10]: over two-fold |
